Experimental findings from ChEMBL document CHEMBL1141452, “Advances in development of dopaminergic aporphinoids” (J Med Chem, 2007) are described below.

The target of experiment [1] is 5-hydroxytryptamine receptor 7 (Homo sapiens, UniProt P34969). Put plainly: Binding affinity at 5HT7 receptor.
Experiment [2] addresses T1, 5-hydroxytryptamine receptor 1A (Rattus norvegicus, UniProt P19327).
T1 sequence (P19327 whole entry): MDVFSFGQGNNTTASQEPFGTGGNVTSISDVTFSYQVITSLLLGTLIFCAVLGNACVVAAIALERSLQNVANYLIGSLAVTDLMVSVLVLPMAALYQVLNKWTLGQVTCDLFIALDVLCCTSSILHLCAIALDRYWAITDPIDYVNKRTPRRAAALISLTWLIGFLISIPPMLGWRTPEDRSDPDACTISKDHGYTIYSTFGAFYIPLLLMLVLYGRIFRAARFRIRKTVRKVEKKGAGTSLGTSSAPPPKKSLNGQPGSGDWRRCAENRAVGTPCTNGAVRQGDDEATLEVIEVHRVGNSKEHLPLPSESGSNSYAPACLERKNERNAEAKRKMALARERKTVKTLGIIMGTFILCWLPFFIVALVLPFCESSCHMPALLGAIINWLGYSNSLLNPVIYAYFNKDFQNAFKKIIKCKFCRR
Put plainly: Displacement of [3H]8-OH-DPAT from rat 5HT1A receptor.

A further experiment addresses D(2) dopamine receptor (Rattus norvegicus, UniProt P61169). Put plainly: Displacement of [3H]raclopride from rat dopamine D2 receptor.
Experiment [3] has as its target 5-hydroxytryptamine receptor 7 (Rattus norvegicus) (UniProt P32305). Briefly: Displacement of [3H]5-HT from rat 5-HT7 receptor.
The next experiment deals with D(1A) dopamine receptor (Rattus norvegicus, UniProt P18901). Put plainly: Displacement of [3H]SCH-23390 from rat dopamine D1 receptor.
Experiment [4] addresses Sodium-dependent dopamine transporter (Rattus norvegicus, UniProt P23977). Briefly: Displacement of [3H]DA from rat DAT.
Experiment [5] in a line: Inhibition of rat midbrain dopaminergic neuron firing. In kind it is functional. The note with it: read-out: ID50 (the source's name).
The target in another experiment is Tyrosine 3-monooxygenase (Homo sapiens, UniProt P07101). Put plainly: Inhibition of tyrosine hydroxylase.
Experiment [6] addresses Tyrosine 3-monooxygenase (Rattus norvegicus) (UniProt P04177). Briefly: Inhibition of tyrosine hydroxylase.
The next experiment deals with PC-12. Briefly: Reduction of dopamine level in catecholamine-inducing rat PC12 cells. In kind it is functional, cell-based.
Experiment [7] concerns Rattus norvegicus. Put plainly: Displacement of [3H]SCH-23390 from rat dopamine D1 receptor at 40 mg/kg, ip. The note with it: route intraperitoneal. The experiment is classed as functional.
Experiment [8] deals with Rattus norvegicus. Briefly: Inhibition of apomorphine-induced penile erection in rat at 40 mg/kg, ip. The experiment is classed as functional. The note with it: route intraperitoneal. Further details: scale not given: the % may be the effect or the level left.
The subject of experiment [9] is Rattus norvegicus. Put plainly: Inhibition of apomorphine-induced yawning in rat at 40 mg/kg, ip. In kind it is functional. Details: scale not given: the % may be the effect or the level left. The note with it: route intraperitoneal.
Experiment [10] deals with Rattus norvegicus. Put plainly: Displacement of [3H]raclopride from rat dopamine D2 receptor at 40 mg/kg, ip. The experiment is classed as functional. The note with it: route intraperitoneal.
The next experiment concerns Cerebrum. Briefly: Inhibition of lipid peroxidation in rat cerebrum. In kind it is functional, tissue-based.

Chain of 5-hydroxytryptamine receptor 7 (Rattus norvegicus) (P32305 whole entry, looked up): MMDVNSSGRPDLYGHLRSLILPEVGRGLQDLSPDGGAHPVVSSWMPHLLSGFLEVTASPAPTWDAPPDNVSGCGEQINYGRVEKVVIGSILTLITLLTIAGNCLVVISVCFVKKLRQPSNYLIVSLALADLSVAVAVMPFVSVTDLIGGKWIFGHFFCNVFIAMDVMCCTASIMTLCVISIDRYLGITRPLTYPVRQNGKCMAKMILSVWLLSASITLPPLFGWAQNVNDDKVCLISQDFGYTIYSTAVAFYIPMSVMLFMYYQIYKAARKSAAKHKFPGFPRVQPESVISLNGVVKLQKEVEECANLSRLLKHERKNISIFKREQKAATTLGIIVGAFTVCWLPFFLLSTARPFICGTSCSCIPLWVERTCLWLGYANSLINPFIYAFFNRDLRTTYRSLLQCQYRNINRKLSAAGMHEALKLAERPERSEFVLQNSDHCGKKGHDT
Chain of D(1A) dopamine receptor (P18901 whole entry): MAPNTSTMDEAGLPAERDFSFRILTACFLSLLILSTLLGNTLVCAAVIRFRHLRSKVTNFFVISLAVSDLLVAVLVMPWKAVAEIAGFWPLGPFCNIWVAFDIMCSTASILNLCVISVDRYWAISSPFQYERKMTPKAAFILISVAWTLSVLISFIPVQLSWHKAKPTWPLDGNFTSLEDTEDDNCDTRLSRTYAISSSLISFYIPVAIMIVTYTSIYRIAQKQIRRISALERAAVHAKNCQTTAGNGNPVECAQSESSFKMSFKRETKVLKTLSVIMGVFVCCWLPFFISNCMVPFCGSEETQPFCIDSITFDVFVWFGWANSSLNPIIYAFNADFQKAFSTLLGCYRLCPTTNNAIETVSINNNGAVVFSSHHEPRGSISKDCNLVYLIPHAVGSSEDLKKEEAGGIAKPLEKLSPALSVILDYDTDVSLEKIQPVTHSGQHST
Chain of Sodium-dependent dopamine transporter (P23977 whole entry): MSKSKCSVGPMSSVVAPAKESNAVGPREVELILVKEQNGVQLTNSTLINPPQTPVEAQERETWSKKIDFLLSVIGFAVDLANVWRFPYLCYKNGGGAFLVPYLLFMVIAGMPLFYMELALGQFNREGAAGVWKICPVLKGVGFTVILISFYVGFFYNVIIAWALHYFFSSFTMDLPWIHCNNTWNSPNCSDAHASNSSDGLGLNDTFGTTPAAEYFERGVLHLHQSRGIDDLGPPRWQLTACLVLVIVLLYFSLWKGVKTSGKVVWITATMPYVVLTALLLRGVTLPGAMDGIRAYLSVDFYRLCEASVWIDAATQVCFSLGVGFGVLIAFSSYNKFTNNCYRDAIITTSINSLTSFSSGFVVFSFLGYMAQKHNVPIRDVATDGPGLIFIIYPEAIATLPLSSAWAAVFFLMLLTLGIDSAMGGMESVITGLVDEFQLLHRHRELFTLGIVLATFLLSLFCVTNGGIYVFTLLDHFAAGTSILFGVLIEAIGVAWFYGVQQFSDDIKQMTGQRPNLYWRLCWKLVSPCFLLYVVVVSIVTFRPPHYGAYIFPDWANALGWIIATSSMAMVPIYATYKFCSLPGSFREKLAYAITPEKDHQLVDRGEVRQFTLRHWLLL
Chain of D(2) dopamine receptor (P61169 whole entry): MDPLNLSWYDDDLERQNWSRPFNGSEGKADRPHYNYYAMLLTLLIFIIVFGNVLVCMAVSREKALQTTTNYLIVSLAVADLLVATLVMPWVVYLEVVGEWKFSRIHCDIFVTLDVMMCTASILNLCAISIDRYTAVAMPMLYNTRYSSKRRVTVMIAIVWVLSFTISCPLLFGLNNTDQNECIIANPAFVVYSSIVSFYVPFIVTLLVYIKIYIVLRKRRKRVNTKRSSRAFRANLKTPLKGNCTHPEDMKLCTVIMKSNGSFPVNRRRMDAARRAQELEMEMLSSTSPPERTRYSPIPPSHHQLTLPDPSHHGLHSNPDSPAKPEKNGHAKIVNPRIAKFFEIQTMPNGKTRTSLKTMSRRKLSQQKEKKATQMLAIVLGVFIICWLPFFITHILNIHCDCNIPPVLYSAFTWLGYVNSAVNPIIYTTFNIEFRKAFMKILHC
Chain of Tyrosine 3-monooxygenase (Rattus norvegicus) (P04177 whole entry, looked up): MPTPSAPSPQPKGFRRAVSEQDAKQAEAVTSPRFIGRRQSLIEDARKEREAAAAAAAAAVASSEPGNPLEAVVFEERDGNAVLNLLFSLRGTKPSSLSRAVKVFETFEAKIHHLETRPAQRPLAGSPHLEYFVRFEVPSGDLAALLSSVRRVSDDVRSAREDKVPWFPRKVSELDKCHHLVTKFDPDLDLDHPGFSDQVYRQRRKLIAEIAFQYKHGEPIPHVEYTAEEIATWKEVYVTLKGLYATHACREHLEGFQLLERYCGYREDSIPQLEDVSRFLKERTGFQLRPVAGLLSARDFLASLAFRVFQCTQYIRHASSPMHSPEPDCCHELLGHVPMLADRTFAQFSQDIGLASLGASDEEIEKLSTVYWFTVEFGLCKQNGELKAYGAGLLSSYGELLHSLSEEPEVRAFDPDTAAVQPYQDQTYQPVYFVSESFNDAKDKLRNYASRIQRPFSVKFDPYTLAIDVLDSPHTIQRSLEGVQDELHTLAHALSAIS
Chain of Tyrosine 3-monooxygenase (P07101 whole entry): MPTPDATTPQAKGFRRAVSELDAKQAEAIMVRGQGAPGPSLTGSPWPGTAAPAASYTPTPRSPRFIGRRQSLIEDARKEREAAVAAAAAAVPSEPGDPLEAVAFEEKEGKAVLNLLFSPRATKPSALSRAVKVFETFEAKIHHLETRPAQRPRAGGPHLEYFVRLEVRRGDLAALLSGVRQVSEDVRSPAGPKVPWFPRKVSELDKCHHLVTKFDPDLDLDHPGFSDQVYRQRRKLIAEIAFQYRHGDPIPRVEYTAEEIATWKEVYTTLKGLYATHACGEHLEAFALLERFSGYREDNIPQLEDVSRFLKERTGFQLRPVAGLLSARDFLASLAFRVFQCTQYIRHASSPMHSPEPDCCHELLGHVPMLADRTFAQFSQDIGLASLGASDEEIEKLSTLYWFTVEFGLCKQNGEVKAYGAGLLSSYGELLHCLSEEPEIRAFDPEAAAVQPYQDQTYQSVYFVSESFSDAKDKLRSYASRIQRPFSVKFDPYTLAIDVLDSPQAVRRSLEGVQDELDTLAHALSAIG
Chain of 5-hydroxytryptamine receptor 7 (P34969 whole entry): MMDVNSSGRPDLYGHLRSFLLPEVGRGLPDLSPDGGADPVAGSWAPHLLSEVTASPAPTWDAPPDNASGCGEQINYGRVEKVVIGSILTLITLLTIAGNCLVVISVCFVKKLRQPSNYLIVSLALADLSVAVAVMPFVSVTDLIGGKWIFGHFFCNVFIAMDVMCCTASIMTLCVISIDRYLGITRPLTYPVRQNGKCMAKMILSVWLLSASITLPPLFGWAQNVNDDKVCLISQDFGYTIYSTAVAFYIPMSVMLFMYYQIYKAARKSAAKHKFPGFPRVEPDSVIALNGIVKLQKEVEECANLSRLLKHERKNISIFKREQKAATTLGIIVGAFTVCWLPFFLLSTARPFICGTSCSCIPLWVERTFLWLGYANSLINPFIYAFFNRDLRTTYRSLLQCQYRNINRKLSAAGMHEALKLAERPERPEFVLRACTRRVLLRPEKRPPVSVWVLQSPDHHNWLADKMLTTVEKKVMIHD

Take `CN1CCc2ccc3[nH]c(=O)c4cccc5c4c3c2[C@H]1C5`: the Ki in experiment [1] was 55 nM; in [2], 180 nM; on D(2) dopamine receptor, 55 nM; in [3], 55 nM.

Regarding `COc1c(O)c2c3c(c1OC)CCN(C)C3Cc1ccccc1-2` (stereo unspecified), the IC50 on D(1A) dopamine receptor was determined as 17200 nM; on D(2) dopamine receptor, 2800 nM; in experiment [4] it was 40000 nM.

Consider `COc1cccc2c1-c1c3c(cc4c1C(C2)N(C)CC4)OCO3` (stereo unspecified), for which the concentration for half-maximal inhibition (IC50) on D(1A) dopamine receptor was over 100000 nM; on D(2) dopamine receptor, over 100000 nM; in experiment [4], 32000 nM.

For `CN1CCc2ccc3c4c2[C@H]1Cc1cccc(c1-4)[C@@]3(C)O`, the results for the Ki (in [2]; at D(2) dopamine receptor; in [3]) were 310 nM, 180 nM and 28 nM, respectively.

As for `CCCN1CCc2cccc3c2[C@H]1Cc1cccc(O)c1-3`, the ED50 in experiment [5] is 0.0047 µmol/kg. The molecule further gave an IC50 against Tyrosine 3-monooxygenase of 42000 nM.

`CCCN1CCc2cccc3c2[C@@H]1Cc1cccc(O)c1-3` gave a concentration for half-maximal inhibition (IC50) against Tyrosine 3-monooxygenase of 87000 nM.

As for `CCCN1CCc2cccc3c2[C@@H]1Cc1ccc(O)c(O)c1-3`, the ED50 in [5] worked out at 1.6 µmol/kg. The IC50 in experiment [6] came to 1000 nM.

Take `CN1CCc2ccc3c4c2[C@@]1(C)Cc1cccc(c1-4)C3`: the Ki in experiment [2] worked out at 41 nM; on D(2) dopamine receptor, 83 nM; in experiment [3] it was 7 nM.

Regarding `Cc1cccc(C#N)c1-c1cccc2c1-c1cccc3c1[C@@H](C2)N(C)CC3` (stereo in doubt; 57), the Ki in experiment [2] turned out to be 800000 nM; at D(2) dopamine receptor it was 2500 nM; in [3], 21 nM.

In the case of `Cc1cccc(O)c1-c1cccc2c1-c1cccc3c1[C@@H](C2)N(C)CC3` (stereo in doubt; 59), the Ki was 300000 nM in [2], over 100000 nM at D(2) dopamine receptor and 4.3 nM in [3].

In the case of `Cc1cccc(O)c1-c1cccc2c1-c1cccc3c1[C@@H](C2)N(C)CC3` (stereo in doubt; 60), the Ki was 49000 nM in experiment [2], over 100000 nM at D(2) dopamine receptor and 23 nM in [3].

`COc1ccc2c(c1O)-c1c3c(cc4c1[C@H](C2)N(C)CC4)OCO3` [(S)-BULBOCAPNINE] returned an IC50 in the experiment on PC-12 of 27000 nM.

For the molecule `CN1CCc2cccc3c2[C@@H]1Cc1ccc(O)c(O)c1-3` [(S)APOMORPHINE], in experiment [5], the ED50 was determined as 8.4 µmol/kg.

Consider `CN1CCc2cccc3c2[C@H]1Cc1ccc(O)c(O)c1-3` [APOMORPHINE], for which the ED50 in experiment [5] turned out to be 0.018 µmol/kg.

On to `COc1cc2c(cc1O)C[C@H]1c3c(cc(O)c(OC)c3-2)CCN1C` [BOLDINE], for which the Activity is 25% in the experiment with Rattus norvegicus [7], 50% in the experiment with Rattus norvegicus [8] and 50% in the experiment on Rattus norvegicus [9].

Take `COc1ccc2c(c1O)Oc1c(O)ccc3c1[C@H](C2)N(C)CC3` [CLAVICULINE]: the values for the IC50 (at D(1A) dopamine receptor; on D(2) dopamine receptor; in experiment [4]) were 1000 nM, 1500 nM and over 100000 nM, respectively.

Turning to `COc1cc2c(cc1OC)-c1c(OC)c(OC)cc3c1[C@H](C2)N(C)CC3` [GLAUCINE], the Ki stood at 2900 nM at D(1A) dopamine receptor and 2800 nM on D(2) dopamine receptor. Moreover, the Activity in the experiment on Rattus norvegicus [7], in the experiment on Rattus norvegicus [10], in the experiment on Rattus norvegicus [8] and in the experiment on Rattus norvegicus [9] was 50% in each case.

For the molecule `COc1c(O)c2c3c(nccc3c1OC)C(C)(C)c1cc(O)ccc1-2` [MELOSMINE], the IC50 at D(1A) dopamine receptor came out at 12500 nM; at D(2) dopamine receptor, 80000 nM; in experiment [4], 24600 nM.

Take `CN1CCc2cc3c(c4c2C1Cc1cccc(O)c1-4)OCO3` (stereo unspecified) [PUKATEINE]: the IC50 on D(1A) dopamine receptor was 400 nM; with Cerebrum, 15000 nM; on D(2) dopamine receptor it was 600 nM; in [4], 46000 nM.

For `CCCN1CCc2cccc3c2[C@H]1Cc1ccc(O)c(O)c1-3` [R-N-PROPYLNORAPOMORPHINE], the ED50 in experiment [5] was 0.002 µmol/kg. This molecule also displayed an IC50 in experiment [6] of 300 nM.

Turning to `COc1cc2c3c(c1OC)-c1c(ccc(O)c1O)CC3N(C)CC2` (stereo unspecified) [SUAVEOLINE], the IC50 at D(1A) dopamine receptor was 63000 nM; in experiment [4], over 100000 nM.
